This is an account of results in patent publication US20250027086A1, “COMPOSITIONS AND METHODS FOR TREATMENT OF CANCERS USING MODIFIED siRNA-GEM AGENTS” (Sirnaomics, Inc., priority 2022, published 2025).

pIC50: −log10 of the molar value. “Also recorded” adds a separate entry of the source.

One data set concerns MiaPaCa-2 cells. The data set is described as follows: Cell viability (CellTiter-Glo) in MiaPaCa-2 pancreatic cancer cells after transfection. The settings on record: in combination with lipofectamine; 96 h; n=4 (FIG. 2); read-out: IC50, MiaPaCa-2 cell viability. The class given is cell-based, human. The method, then: (§1) MIA PaCa-2, […], LS180, HT1376, HT29, H358, H1299, OVCAR-3, HTB-9 and Panc 10.05 cells were obtained from ATCC (Rockville, MD). MiaPaCa cells were cultured in DMEM medium supplemented with 10% FBS. H358, H1299, HTB-9, N87 and Panc 10.05 cells were cultured in DMEM/10% FBS; LS180 and HT1376 in EMEM/10% FBS; HT29 cells in McCoy5A/10% FBS; OVCAR-3 cells were incubated in RPMI/20% FBS. All cells were maintained at 37 degrees C. in an atmosphere containing 5% CO^2.
The day before transfection, cells were seeded in a 384-well plate at an optimal density of between 300 and 800 cells/well. The next day, ten 3-fold serial dilutions of single, modified-backbone siRNAs or PGN6/PGN7 siRNA and Gemcitabine (GEM) mixed with siRNAs: Wee1 #7, KRAS #1, MCL1 #3 or DM2-P47 siRNAs at 1:1 ratio were prepared and combined with diluted Lipofectamine RNAiMAX (Life Technologies, Carlsbad, CA). Within 20 minutes, 10 μl of the transfection mixtures were added to the cells in a 40 μL medium. The final concentrations of siRNAs or Gemcitabine in the wells ranged from 100 nM to 0.002 nM.
Ninety-six hours following the addition of GEM or transfection mixtures, the number of viable cells was determined with CellTiter-Glo®-2.0 reagent (Promega, Madison, WI) by measuring luminescent signal using a Cytation 5 plate reader (BioTek Inc, Winooski, VT). The treatment group (n=4) mean (±SD) was compared to those of non-treated controls and were reported as relative cell viability.
(In general: ATP-based viability assays read luminescence as a measure of living cells.)

Data set [1] deals with MiaPaCa-2 xenograft tumors. The data set is described as follows: Xenograft tumor growth in NU/NU mice after subcutaneous implantation of MiaPaCa tumor cells, intratumoral injections. Type of data set: in vivo, mouse. The settings on record: vs control; for tumor weight: xenografts harvested Day 25, n=8, FIG. 14(a). The method, then:
Twenty-four NU/NU nude mice were purchased from Charles River Laboratories (Frederick, MD) and each housed in a single cage with standard bedding, lighting and ad libitum feed.
The human pancreatic cell carcinoma MiaPaCa-2 cell line was obtained from American Type Culture Collection (ATCC, CRL-1420™) and cultured in DMEM with 10 percent fetal bovine serum and 1 percent pen-strep in a humidified incubator with temperature at 37 degrees C., and 5 percent CO2. Subcultures were made when cell volume reached ˜80-90 percent (roughly 3-5 days). Media was changed every 3 to 4 days. All experiments were performed when the cells reached approximately 80-90 percent confluence.
MiaPaCa tumor cells (2.5×10^6 cells) in 100 μl of growth media and 100 μl of Matrigel were injected subcutaneously into the left flank of each mouse on Day 0. Body weight measured using a digital scale, and tumor volume measured using a digital caliper, were recorded […]. Tumor volume was measured using external digital calipers with modified ellipsoid formula: ½(length×width^2).
The mice were assigned to one of three groups (n=8) approximately five to ten days after subcutaneous implantation of MiaPaCa cells, when tumors had reached 100 mm^3 in volume. Twice weekly (Mon. and Thurs.) for three-four weeks, mice in all three groups received intratumoral injections of 80 μl each. Mice in the control group were injected with non-silencing (NS) siRNA with HKP(+H) as a carrier. Mice in one of the treatment groups were injected with PGN7, i.e., GEM siRNA with HKP(+H)shk1 (2.z), (SEQ. ID No. 9-10). Mice in the second treatment group were injected with STD1, i.e., GEM siRNA with HKP(+H) chk1 (2.z) (SEQ. ID No. 3-4). All injections were given under isoflurane anesthesia to minimize discomfort
Tumor volume (mm^3) and body weights were measured on Days 0, 4, 7, 11, 14, 18, 21 and 25. Mean±SE for each group (PGN7, STD1 and control) were statistically compared using analysis of variance (ANOVA) with the Tukey test. Mice were also observed for excess growth, adverse reactions to treatments and other observable, adverse signs of health. Treatments were blinded to the tracers and data analysts.
All mice were sacrificed and the implanted xenograft removed on Day 26 after initial treatment (the last treatment given on Day 25). One-third of the xenograft was fixed in […] formalin for histological analysis; one-third was frozen and one-third was preserved in RNAlater stabilization and storage solution.

For another data set, the system named is MDA-MB231 cells. Put plainly: Cell viability in triple negative breast cancer cell line MDA-MB231. The settings on record: MDA-MB231, 400 cells per well; FIG. 13(a). Type of data set: cell-based. The method, then: as §1
The day before transfection, cells were seeded in a 384-well plate at an optimal density of between 300 and 800 cells/well. […]
Ninety-six hours following the addition of GEM or transfection mixtures, the number of viable cells was determined with CellTiter-Glo®-2.0 reagent (Promega, Madison, WI) by measuring luminescent signal using a Cytation 5 plate reader (BioTek Inc, Winooski, VT). […]
Using the same or similar experimental condition as are described above in Example 1, the effects of (i) PGN7 (SEQ. ID No. 9-10) plus a non-signaling oligonucleotide (“NS”), (ii) BCLxL #5 (SEQ. ID No. 14)+NS, and (iii) PGN7 and BCLxL #5 in combination were evaluated and are shown in triple negative breast cancer (MDA-MB231) and ovarian cancer (OVCAR3) cell lines in FIGS. 13 (a)-(b). […]

A word on the pIC50: it is the IC50 on a negative log10 scale, so that one unit is a factor of ten. On to “PGN7: modified siRNA-GEM RNAi agent (SEQ. ID No. 9-10): sense 5′-AAGAAAgAgau[GEM]uGuAu[GEM]AAu-3′; antisense 5′-AuUGAuACAGAuCuCuUuCuU[GEM][GEM]dTdT-3′ (sense AAGAAAGAGATCTGTATCAAT; antisense ATTGATACAGATCTCTTTCTTCCTT; GEM modifications; 2'-modified bases; dTdT overhang; modified_base 1 OTHER; 2'-O-methyl modified nucleotide; modified_base 2 OTHER; modified_base 3 OTHER; modified_base 4 OTHER; modified_base 5 OTHER; modified_base 6 OTHER; modified_base 7 OTHER; 2'-fluoro modified nucleotide; modified_b; 2'-O-me)”, for which the pIC50 is 11.22 in the data set on MiaPaCa-2 cells and 8.96 with MDA-MB231 cells. For the same substance, in data set [1] (intratumoral twice weekly with HKP(+H), ANOVA Tukey, p<0.02, from 14 days, FIG. 14(c)), the tumor volume result is “effectively attenuated the increase; also recorded: significantly reduced tumor volume; also recorded: attenuating the growth of pancreatic tumors”. Moreover, in data set [1] (over 25 days, p>0.05, FIG. 14(b)), the body weight entry is reported as “did not differ”. Moreover, the tumor weight entry is on record as “did not differ” in data set [1] (p>0.05) and “did not differ significantly” in data set [1] (p>0.05, listed as PGN 7).
